Experimental data reported in PubChem BioAssay (NCI).
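Grown in 96-well plates, cells were treated for 48 hours with each compound at five concentrations. Insufficient inhibition: endpoint recorded as highest concentration tested. At the GI50, growth is halved. TGI denotes the concentration required for complete inhibition of growth.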

Key:
Assay in all cases: inhibition of tumour cell growth, NCI panel, 48 h
[1] = system: A498 renal
[2] = system: MALME-3M melanoma
[3] = system: NCI-H460 lung
[4] = system: EKVX NSCLC
[5] = system: UACC-257 melanoma
[6] = system: 786-0 renal
[7] = system: UO-31 renal
[8] = system: A549 NSCLC
[9] = system: U251 CNS
[10] = system: KM12 colon
[11] = system: MDA-MB-231 breast
[12] = system: T-47D breast
[13] = system: OVCAR-4 ovarian
[14] = system: COLO 205 colon
[15] = system: UACC-62 melanoma
[16] = system: K-562 leukemia
[17] = system: ACHN renal
[18] = system: OVCAR-3 ovarian
[19] = system: SR leukemia
[20] = system: NCI-H226 lung
[21] = system: RXF 393 renal
[22] = system: HOP-92 NSCLC
[23] = system: RPMI-8226 leukemia
[24] = system: PC-3 prostate
[25] = system: SF-268 CNS
[26] = system: CAKI-1 renal
[27] = system: SW-620 colon
[28] = system: NCI-H23 lung
[29] = system: HCT-15 colon
[30] = system: DU-145 prostate

CC(=O)Nc1ccc(-c2cn(-c3cccc(C(=O)Nc4ccc(F)c(C(F)(F)F)c4)c3)nn2)cn1 was tested, and the GI50 [1] was 26.6 µM, the TGI [1] was 43.4 µM and the GI50 [2] was 9.6 µM. For the same compound, the TGI [2] was 21.8 µM, the GI50 [3] was 16.8 µM and the TGI [3] was 32.2 µM. For the same compound, the GI50 [4] was 18.1 µM, the TGI [4] was 34 µM and the GI50 [5] was 17.6 µM. The TGI [5] was 38.6 µM, the GI50 [6] was 2.6 µM and the TGI [6] was 11.1 µM. The GI50 [7] was 15.4 µM, the TGI [7] was 29.6 µM and the GI50 [8] was 25.2 µM. For the same compound, the TGI [8] was 68.5 µM, the GI50 [9] was 23.5 µM and the TGI [9] was 57.7 µM. For the same compound, the GI50 [10] was 6.64 µM, the TGI [10] was 53.5 µM and the GI50 [11] was 11.2 µM. The TGI [11] was 24.1 µM, the GI50 [12] was 22.9 µM and the TGI [12] was 66.4 µM. The GI50 [13] was 20.3 µM, the TGI [13] was 40.9 µM and the GI50 [14] was 18.3 µM. For the same compound, the TGI [14] was 41.3 µM, the GI50 [15] was 14.2 µM and the TGI [15] was 27.6 µM. It also gave a GI50 [16] of 4.13 µM, a TGI [16] of 24.6 µM and a GI50 [17] of 15.7 µM. The TGI [17] was 30.1 µM, the GI50 [18] was 21.2 µM and the TGI [18] was 41.4 µM. For the same compound, the GI50 [19] was 31 µM, the TGI [19] was over 100 µM and the GI50 [20] was 18.4 µM. It also gave a TGI [20] of 36.3 µM, a GI50 [21] of 14.5 µM and a TGI [21] of 31.6 µM. For the same compound, the GI50 [22] was 15.8 µM, the TGI [22] was 35.1 µM and the GI50 [23] was 24.3 µM. It also gave a TGI [23] of 66.2 µM, a GI50 [24] of 16 µM and a TGI [24] of 38.1 µM. It also gave a GI50 [25] of 26.5 µM, a TGI [25] of 63.4 µM and a GI50 [26] of 17.3 µM. It also gave a TGI [26] of 32.7 µM, a GI50 [27] of 17.1 µM and a TGI [27] of 33.8 µM. It also gave a GI50 [28] of 14.8 µM, a TGI [28] of 28.8 µM and a GI50 [29] of 17.2 µM. It also gave a TGI [29] of 33.4 µM and a GI50 [30] of 27 µM.
